Assay results as given in patent US9745288B2, “Compounds and methods for treating cancer by inhibiting the urokinase receptor” (Indiana University Research and Technology Corporation, priority 2011, dated 2017).

Tested on: TMD-231 cells
Assay: TMD-231 mammary fat pad xenograft, tumor growth and lung metastasis
Assay type: in vivo
Text: Mouse Xenograft Studies. NOD/SCID mice were obtained from the on-site breeding colony maintained by the In Vivo Therapeutics Core at the Indiana University Simon Cancer Center (IUSM, Indianapolis, Ind.) and maintained in pathogen-free conditions within the laboratory animal resources center (LARC) at the Indiana University School of Medicine according to an approved protocol by the Institutional animal care and use committee (IACUC) committee.
For metastasis studies, m.f.p. tumors were allowed to grow to approximately 100 mm^3 mice. Mice were assigned to treatment group based on average tumor size/weight. Following a recovery period of two days, mice received treatment of investigational drug (n=15) or a PBS solvent control (n=15). After four weeks mice were euthanized, the lungs were resected, fixed in formalin solution, sectioned, and stained with hematoxylin and eosin (H&E) for analysis. […] Tumor volume were be calculated as Length*Width^2/2 in millimeters.
TMD-231 cells were inoculated into the mammary fat pad of female NOD/SCID mice. Dosing was initiated at day 18 post implantation. Animals were randomized and treated with vehicle or with IPR-69 by daily oral gavage at a dose of 150 mg/kg (n=11). Tumor volumes were determined by caliper measurements on a […], and calculated according to the formula (α2×β)/2, where α is the shorter and β is the longer of the two dimensions. Tumor volumes were determined by caliper measurements on a weekly basis. The study was conducted over a period of 68 days. […] Once the tumor volume reached 30 mm^3 to 50 mm^3, animals were randomized and treated with vehicle alone as control or 150 mg/kg IPR-69 three times a week for 10 weeks by oral gavage. Tumor volumes were determined by caliper measurements obtained weekly. Over the course of the study, several mice were sacrificed to determine whether breast tumor cells had metastasized to the lungs. At the end of the study, control and experimental animals were sacrificed and organs (lungs) were removed and evaluated for the presence of tumors. The number and size of metastasis in two to five fields per sample were calculated. […] Briefly, percentage of staining was categorized as “0” if there was no nuclear/cytoplasmic expression, “1” for up to 10% positive tumor nuclei/cells, “2” for 11-20% and until a maximum score of “10”. Intensity was scored as “1+,” “2+,” and “3+” for weak, moderate and strong staining respectively.

Cc1cc(C)cc(NC(=O)c2cnn(-c3ccc(C(C)C)cc3)c2C2CCNCC2)c1 [IPR-69, N-(3,5-dimethylphenyl)-1-(4-isopropylphenyl)-5-(piperidin-4-yl)-1H-pyrazole-4-carboxamide]
treated mice with metastatic lesions of score >2 (150 mg/kg oral gavage): 3
tumor volume at the end of the study (150 mg/kg oral gavage, average, 68 days): 779 mm^3
treated mice with signs of metastatic lesions in the lungs (150 mg/kg oral gavage, n=11): 3 out of 11
metastasis to the lungs (compared with untreated mice): less extensive metastasis to the lungs
tolerability (doses as high as 150 mg/kg, mice): well tolerated
